# Results: US7691905B2, “Inhibition of melanogenesis and melanoma metastasis with p-aminobenzoic acid (PABA)” (New York University, priority 2002, dated 2010)
# Columns and labels:
# transplantable melanoma = details: hamsters; Zbytniewski et al. 1977; cited from earlier work
# B16 melanoma cells [1] = assay: B16 melanoma cell proliferation with PABA and/or Taxol, direct cell counts; assay type: cell-based; details: 10.0 μM paclitaxel and/or 0.1 mg/ml PABA, DMEM, 48-hour incubation
# Procedure: (§1) Cell proliferation was determined by direct cell counts.
# The ability of PABA to enhance the anti-proliferative effect of the chemotherapeutic agent, Taxol, was tested in B16 melanoma cells. […] Cell proliferation was monitored by direct cell counts over a 48-hour incubation period.
# tyrosinase = assay: Tyrosinase activity, Dopachrome formation from L-DOPA (OD 475 nm); assay type: biochemical; details: L-DOPA 8.0 mM, 800 U purified tyrosinase
# Procedure: Tyrosinase activity was assessed by measuring the formation of Dopachrome from L-DOPA using absorbance at 475 nm wavelength.
# The effects of PABA on tyrosinase activity were evaluated by measuring the formation of Dopachrome using a previously published method. (Heidcamp W (1995), supra.) L-DOPA (8.0 mM) was resuspended in sodium citrate buffer and 800 U of purified tyrosinase was added. Tyrosinase activity was measured by monitoring the formation of Dopachrome by measuring the optical density of the mixture at a wavelength of 475 nm. To assess the effects of PABA, the reactions were performed in the presence or absence of PABA. As a control, reactions were performed in the presence of adenosine instead of PABA.
# B16 melanoma cells [2] = assay: Melanin secretion of B16 melanoma cells, colour of DMEM medium; assay type: cell-based; details: 0.1 mg/ml PABA in DMEM, seven days; unsupplemented medium turned brown
# Procedure: The RPMI medium remained red due to the inhibition of melanin secretion. One of the major components in RPMI that is absent in DMEM is PABA. To assess the effect of PABA on melanin secretion from B16 cells, PABA was added to DMEM culture medium to achieve the same concentration as that found in the RPMI medium: 0.1 mg of PABA per milliliter of medium. Cells were grown in PABA-supplemented DMEM medium for seven days. The PABA-supplemented medium remained red, while the unsupplemented medium turned brown.
# B16F10 melanoma cells [3] = assay: In vivo xenograft study of PABA and radiation, B16F10 melanoma; parameters: species or system Balb/c nude mice; details: tumor volume after 15 days
# Procedure: 1×10^6 B16F10 melanoma cells (cultured in the absence of PABA) were implanted subcutaneously into Balb/c nude mice. Intraperitoneal injections of PABA at a concentration of 50 mg/kg were started 3 days after implantation of the tumor cells and continued daily. Ten days following tumor cell implantation, mice were either not irradiated or were irradiated with 3 fractions of 3 Gy every other day for a total dose of 9 Gy.
# After 15 days, the animals were sacrificed and the tumors were resected. The tumors were measured and their volumes were calculated.
# [4] = tested on: Lewis Lung Carcinoma (LLC) cells; assay: Lewis Lung Carcinoma cell proliferation, direct cell counts; assay type: cell-based; details: 0.1 mg/ml PABA, DMEM, 48-hour incubation
# Procedure: The anti-proliferative effect of PABA on carcinoma cells was tested on Lewis Lung Carcinoma (LLC) cells. (Young M R et al. (2003) Int J Cancer 103:38-44.) Cells were grown in DMEM medium in the presence or absence of 0.1 mg/ml PABA. Cell proliferation was monitored by direct cell counts over a 48-hour incubation period.
# B16 melanoma cells [5] = assay: B16 melanoma cell proliferation with ionizing radiation, direct cell counts; assay type: cell-based; details: 0.1 mg/ml PABA plus single fraction dose of 10 Gy, 3-day incubation
# Procedure: as §1
# (Kinnaert E et al. (2000) Radiation Res 154:497-502.) Thus, blocking melanin synthesis or melanogenesis may cause melanoma cells to become much more sensitive to radiation therapy. To test the effect of PABA on the anti-proliferative effects of ionizing radiation, B16 melanoma cells grown in the presence or absence of 0.1 mg/ml PABA were treated with a single fraction dose of 10 Gy of ionizing radiation. Cell proliferation was monitored by direct cell counts over a 3-day incubation period.
# B16 melanoma cells [6] = assay: B16 melanoma experimental metastasis in chick embryo model; assay type: in vivo; details: cells grown with 0.1 mg/ml PABA for one to three weeks, injected into 12-day old chick embryos, 7-day incubation
# Procedure: The number of melanoma metastases were measured by counting the number of metastatic lung tumor lesions present in lungs from sacrificed chick embryos. The effect of PABA on the aggressiveness and invasiveness of B16 melanoma was measured in a chick embryo model. (Brooks PC et al. (1994) Cell 79:1157-1164.) The effects of PABA on B16 experimental metastasis in vivo were evaluated to determine the role melanin synthesis plays in the aggressiveness and invasiveness of melanoma metastasis. B16 melanoma cells grown in the presence or absence of 0.1 mg/ml PABA for one to three weeks were injected into 12-day old chick embryos. At the end of a 7-day incubation period, the embryos were sacrificed and the number of metastatic lung tumor lesions were quantified.
# [7] = tested on: human G-361 melanoma cells; assay: Human G-361 melanoma cell proliferation with ionizing radiation, direct cell counts; assay type: cell-based; details: 0.1 mg/ml PABA plus 20 Gy
# Procedure: as §1
# The radiation-enhancing effect of PABA on melanoma observed in B16 melanoma cells was confirmed in the pigmented human melanoma cell line G-361 (ATCC Number CRL-1424, (1978) Pediatr Res 12:485.) The human G-361 melanoma cells are more resistant to radiation than B16 melanoma cells and thus require a higher dose of ionizing radiation to inhibit growth, compared to B16 cells. Human G-361 melanoma cells were treated with 20 Gy of radiation, either alone or in combination with 0.1 mg/ml PABA, as described in example 7.
# B16 melanoma cells [8] = assay: Melanin content of culture medium by absorbance at 405 nm and 660 nm; assay type: cell-based; details: PABA 0.5 mg/day and 1.0 mg/day, DMEM
# Procedure: Melanin levels were determined by absorbance at 405 nm wavelength (A) and absorbance at 660 nm wavelength (B). To further analyze the effects of PABA on B16 melanoma cell melanin secretion, PABA was added at concentrations of 0.5 mg/day and 1.0 mg/day to B16 melanoma cells cultured in DMEM. Samples of the culture medium were then analyzed for melanin content by measuring absorbance at wavelengths of 405 nm and 660 nm.
# B16F10 melanoma cells [9] = assay: Chick embryo tumor growth assay, B16F10 melanoma, PABA and ionizing radiation; assay type: in vivo; details: tumor wet weight after 7 days
# Procedure: The chick embryo tumor growth assay (Petitclerc E et al. (2000) J Biol Chem 275:8051-8061) was used to determine whether PABA enhances the effect of ionizing radiation to inhibit tumor growth in vivo. Four groups of chick embryos were studied. […] There were 5 to 10 chick embryos in each group.
# The groups were created in the following manner. B16F10 melanoma cells were cultured for 14 days in growth medium in the absence of PABA or in the presence of PABA at a concentration of 100 μg/ml. The cells were harvested, washed, and resuspended in sterile PBS. The B16F10 melanoma cells were implanted on the CAMs of 10-day-old chick embryos, which were then incubated for at least 24 hours. The incubated chick embryos (some that were cultured in the absence of PABA and some that cultured in the presence of PABA) were treated with a single fraction dose of ionizing radiation (5.0 Gy). The embryos were incubated for 7 days and then the chick embryos of each group were sacrificed. The tumors were resected and tumor growth was assessed by measuring the wet weights of the resected tumors.
# B16 melanoma cells [10] = assay: Intracellular melanin, colour of cell pellets; assay type: cell-based; details: 0.1 mg/ml PABA, three weeks of culture; untreated pellets black
# Procedure: To determine whether PABA inhibits the intracellular synthesis of melanin in B16 cells, cells were grown in DMEM in the presence or absence of 0.1 mg/ml PABA. Following three weeks of culture, cells were collected by centrifugation. Cell pellets from cells cultured in the absence of PABA appeared black, as normal, indicating the presence of melanin.
# [11] = tested on: Lewis Lung Carcinoma (LLC) cells; assay: Lewis Lung Carcinoma tumor growth assay on chick embryo CAM; assay type: in vivo; details: cells grown with 0.1 mg/ml PABA for 3 weeks, 7 days
# Procedure: The effect of PABA on the growth of carcinoma tumors was tested using the Lewis Lung Carcinoma (LLC) tumor growth assay. (Mauceri H J et al. (2002) Cancer Chemother Pharmacol 50:412-418.) LLC cells were grown in DMEM medium in the presence or absence of 0.1 mg/ml PABA for 3 weeks. Cells were harvested and 2×10^6 cells from each group were inoculated in the CAMs of 10-day old chick embryos. The embryos were allowed to develop for a further seven days. At the end of the 7-day incubation period, the embryos were sacrificed and the tumors removed and wet weights determined.
# B16 melanoma cells [12] = assay: Chick embryo tumor growth assay, B16 melanoma on CAM; assay type: in vivo; details: cells grown with 0.1 mg/ml PABA for 6 weeks, CAM of 10-day old chick embryos, 7 days
# Procedure: The effect of PABA on solid tumor growth in vivo were evaluated using the chick embryo tumor growth assay. (Petitclerc E et al. (2000) J Biol Chem 275:8051-8061.) B16 melanoma cells were grown in the presence or absence of 0.1 mg/ml PABA for 6 weeks. Cells were harvested and 2.5×10^5 cells from each group were inoculated in the chorioallantoic membranes (CAM) of 10-day old chick embryos. The embryos were allowed to develop for a further seven days. At the end of the 7-day incubation period, the embryos were sacrificed and the tumors removed and wet weights determined. Tumors formed from B16 melanoma cells treated with PABA were, on average, 60% smaller than tumors derived from untreated B16 melanoma cells (FIG. 4).
smiles,measurement,setting,value
"NCc1ccc(C(=O)O)cc1 [PAMBA, para-Aminomethylbenzoic acid]",invasiveness of transplantable melanoma metastases,transplantable melanoma,reducing the invasiveness of transplantable melanoma metastases in hamsters
"CC(=O)O[C@H]1C(=O)[C@@]2(C)[C@H]([C@H](OC(=O)c3ccccc3)[C@]3(O)C[C@H](OC(=O)[C@H](O)[C@@H](NC(=O)c4ccccc4)c4ccccc4)C(C)=C1C3(C)C)[C@]1(OC(C)=O)CO[C@@H]1C[C@@H]2O [Paclitaxel, paclitaxel]",cell proliferation,B16 melanoma cells [1],significantly inhibited B16 melanoma cell proliferation
"Nc1ccc(C(=O)O)cc1 [PABA, para-Aminobenzoic acid]",tyrosinase activity (Dopachrome formation),tyrosinase,dose dependent inhibition of Dopachrome formation
same,colour of culture medium (accumulation of secreted melanin),B16 melanoma cells [2],remained red
same,inhibition of tumor growth as compared to control,"B16F10 melanoma cells [3]; PABA 50 mg/kg i.p. daily plus 3 fractions of 3 Gy (9 Gy), P<0.002",about 95%
same,effect on tumor growth as compared to control,"B16F10 melanoma cells [3]; PABA alone 50 mg/kg i.p. daily, P>0.100",minimal effect on tumor growth
same,cell proliferation,[4],increased the proliferation of LLC cells
same,"cell proliferation after radiation, PABA vs no PABA",B16 melanoma cells [5],increased the anti-proliferative and cytotoxic effects
same,number of metastatic lung tumor lesions,B16 melanoma cells [6],time dependent inhibition of B16 melanoma metastasis
same,"cell proliferation, PABA in combination with radiation",[7],essentially completely inhibited the proliferation
same,melanin secretion (absorbance of medium at 405 nm and 660 nm),B16 melanoma cells [8],time dependent and concentration dependent inhibition of melanin secretion
same,inhibition of tumor growth as compared to the control group,B16F10 melanoma cells [9]; PABA 100 μg/ml plus single fraction ionizing radiation 5.0 Gy,about 90%
same,inhibition of tumor growth as compared to the control group,"B16F10 melanoma cells [9]; PABA alone, cells cultured 14 days with 100 μg/ml PABA",about 75%
same,colour of cell pellets (melanin accumulation),B16 melanoma cells [10],much lighter in color
same,tumor size (wet weight) vs tumors from untreated LLC cells,[11],significantly larger
same,tumor size (wet weight) reduction vs tumors from untreated cells,B16 melanoma cells [12],60%
